These results are taken from ChEMBL document CHEMBL1201862, “PubChem BioAssay data set” (2004).

SMILES strings stand for the structures.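 Grown in 96-well plates, cells were treated for 48 hours with each compound at five concentrations. Insufficient inhibition: endpoint recorded as highest concentration tested. The concentration for 50% growth inhibition is given as GI50.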 The source made the active and inactive calls. Rule as the data show it: active = GI50 up to about 1.1 µM and inactive = higher. Starred links: 1 amine or outer side, 2 acyl side, 3 side chain; linkers in the order of their positions; H or OH if unused. Positions of bridges follow the written chain, without caps; N, C: chain ends. Non-standard residues stand in square brackets, D forms with d. Residues, ends and D or L forms follow the SMILES beside them. ξ: configuration not given here. X37 = CC[C@H](C)[C@@H](N[*:1])[C@@H](O)CC(=O)O[C@H](C(=O)[C@H](C)C(=O)[*:2])C(C)C; NMeY = CN[C@@H](Cc1ccc(O)cc1)C(=O)O; dNMeL = CN[C@H](CC(C)C)C(=O)O; ξΔPro = O=C(O)C1C=CCN1

Some test systems named below: HL-60; LOX IMVI; SNB-75; M14; HT-29; RXF 393; OVCAR-4; A498; HCT-116; UACC-62; OVCAR-3; OVCAR-5; NCI/ADR-RES; U-251; SF-539; SF-268; HOP-92; IGROV-1; SN12C.
Assay in all cases: NCI anticancer screen, dose series, 48 h

With `Cc1nn(-c2ccccc2)c2c1CC(=O)Nc1ccccc1-2`, the GI50 with HL-60 was 0.236 µM (active); in the experiment on LOX IMVI, 0.507 µM (active); in the experiment on SNB-75, 0.482 µM (active); in the experiment on M14, 0.553 µM (active); in the experiment on HT-29, 0.424 µM (active); in the experiment with RXF 393, 0.313 µM (active). The GI50 was 18.5 µM (inactive) in the experiment on OVCAR-4; 1.59 µM (inactive) with A498; 0.409 µM (active) in the experiment with HCT-116; 0.521 µM (active) with UACC-62; 0.482 µM (active) in the experiment on OVCAR-3; 4.82 µM (inactive) with OVCAR-5. Further, the GI50 is 0.413 µM (active) with NCI/ADR-RES; 0.743 µM (active) in the experiment with U-251; 0.607 µM (active) with SF-539; 1.63 µM (inactive) with SF-268; 4.18 µM (inactive) with HOP-92; 1.6 µM (inactive) with IGROV-1.
In the case of `Oc1ccc2ccccc2c1OCc1nnc(CCCCCCCCc2nnc(COc3c(O)ccc4ccccc34)n2Nc2ccccc2)n1Nc1ccccc1`, the GI50 with SNB-75 was 38.4 µM (inactive); with M14, 2.56 µM (inactive); in the experiment on HT-29, 10.7 µM (inactive); in the experiment with RXF 393, 28.5 µM (inactive); in the experiment with OVCAR-4 it was 10.7 µM (inactive); with A498 it was 40.7 µM (inactive). The GI50 in the experiment on HCT-116 is 10.9 µM (inactive); in the experiment on UACC-62, 0.855 µM (active); in the experiment with SN12C it was 35.7 µM (inactive); with OVCAR-3, 12.9 µM (inactive); in the experiment on OVCAR-5, 2.51 µM (inactive); in the experiment with NCI/ADR-RES it was 8.2 µM (inactive). Also, the GI50 with U-251 is 19 µM (inactive); in the experiment on SF-539, 6.85 µM (inactive); in the experiment on SF-268, 6.17 µM (inactive); in the experiment with HOP-92 it was 17.2 µM (inactive); with IGROV-1, 7.05 µM (inactive).
Regarding `NC(CSCc1ccccc1)C(=O)O` (centres undefined), the GI50 in the experiment on HL-60, with LOX IMVI, in the experiment on SNB-75, with M14, in the experiment on HT-29 and in the experiment on RXF 393 was > 100 µM (inactive) throughout. The GI50 with OVCAR-4, in the experiment on A498, with HCT-116, in the experiment on UACC-62, with SN12C and in the experiment with OVCAR-3 was > 100 µM (inactive) each time. The GI50 in the experiment with OVCAR-5, in the experiment with NCI/ADR-RES, in the experiment on U-251, in the experiment with SF-268, in the experiment with HOP-92 and in the experiment on IGROV-1 was > 100 µM (inactive) each time.
For `CC1(C)OC2COC(c3n[nH]c4c(=O)[nH]c(=O)[nH]c34)C2O1` (centres undefined), the GI50 in the experiment with HL-60, in the experiment with LOX IMVI, in the experiment on M14, in the experiment with HT-29, with RXF 393 and in the experiment on OVCAR-4 was > 100 µM (inactive) in each case. The GI50 in the experiment on A498, in the experiment with HCT-116, in the experiment on UACC-62, with SN12C, in the experiment with OVCAR-3 and with OVCAR-5 was > 100 µM (inactive) each time. In addition, the GI50 in the experiment on NCI/ADR-RES was > 100 µM (inactive); in the experiment with U-251, > 100 µM (inactive); in the experiment with SF-539, > 100 µM (inactive); in the experiment on SF-268 it was > 100 µM (inactive); with HOP-92 it was 74 µM (inactive); in the experiment with IGROV-1 it was > 100 µM (inactive).
In the case of `CCCC(=O)Nc1cc(/C=C/C(=O)N2CC(CCl)c3c2cc([N+](=O)[O-])c2ccccc32)n(C)c1` (centres undefined), the GI50 in the experiment on HL-60 was 0.767 µM (active); in the experiment with SNB-75 it was 6.12 µM (inactive); in the experiment on M14 it was > 100 µM (inactive); in the experiment on HT-29, > 100 µM (inactive); in the experiment with RXF 393, 59.4 µM (inactive); in the experiment with OVCAR-4 it was > 100 µM (inactive). Besides, the GI50 is 8.49 µM (inactive) in the experiment with A498; 11.9 µM (inactive) with HCT-116; 8.38 µM (inactive) with UACC-62; > 100 µM (inactive) in the experiment with SN12C; > 100 µM (inactive) in the experiment with OVCAR-3; > 100 µM (inactive) with OVCAR-5. Moreover, the GI50 in the experiment on NCI/ADR-RES was 8.93 µM (inactive); in the experiment with U-251 it was > 63.5 µM (inactive); in the experiment on SF-539, 56.1 µM (inactive); in the experiment on SF-268 it was > 100 µM (inactive); in the experiment with HOP-92, > 100 µM (inactive); with IGROV-1, > 100 µM (inactive).
For the compound `Cc1c(CCOC=O)c(=O)[nH]c2nncn12`, the GI50 with HL-60, with LOX IMVI, in the experiment with SNB-75, in the experiment on M14, in the experiment with HT-29 and in the experiment on RXF 393 was > 100 µM (inactive) each time. Moreover, the GI50 with OVCAR-4, in the experiment with A498, with HCT-116, in the experiment with UACC-62, with SN12C and with OVCAR-3 was > 100 µM (inactive) each time. Also, the GI50 with OVCAR-5, in the experiment on NCI/ADR-RES, with U-251, with SF-539, with SF-268 and in the experiment with HOP-92 was > 100 µM (inactive) each time. The GI50 in the experiment with IGROV-1 was > 100 µM (inactive).
On to `CCC1(CCSC(=N)N)C(=O)NC(=O)NC1=O`, for which the GI50 in the experiment on HL-60 is 48.9 µM (inactive); with LOX IMVI, > 100 µM (inactive); with M14, > 100 µM (inactive); in the experiment with HT-29 it was > 100 µM (inactive); in the experiment with RXF 393, > 100 µM (inactive); with OVCAR-4, > 100 µM (inactive). For the same compound, the GI50 in the experiment on A498, with HCT-116, in the experiment on UACC-62, with SN12C, in the experiment with OVCAR-3 and with OVCAR-5 was > 100 µM (inactive) throughout. For the same compound, the GI50 with NCI/ADR-RES, in the experiment on U-251, in the experiment on SF-539, in the experiment on SF-268, in the experiment on HOP-92 and in the experiment on IGROV-1 was > 100 µM (inactive) each time.
Turning to `CC[C@H](C)[C@H]1NC(=O)[C@@H](NC(=O)[C@@H](CC(C)C)N(C)C(=O)C2C=CCN2)[C@@H](C)OC(=O)[C@H](Cc2ccc(OC)cc2)N(C)C(=O)[C@@H]2CCCN2C(=O)[C@H](CC(C)C)NC(=O)[C@@H](C)C(=O)[C@H](C(C)C)OC(=O)C[C@@H]1O` (some centres undefined) (H-[ξΔPro][dNMeL]T[X37]LP[NMeY](Me); ester 3-C), the GI50 in the experiment on HL-60 was 0.00703 µM (active); in the experiment with LOX IMVI, < 0.005 µM (active); in the experiment on SNB-75, < 0.005 µM (active); in the experiment on M14, < 0.005 µM (active); in the experiment with HT-29, < 0.005 µM (active); with RXF 393, < 0.005 µM (active). The GI50 with OVCAR-4 is < 0.005 µM (active); in the experiment with A498, 0.00594 µM (active); in the experiment on HCT-116, < 0.005 µM (active); with UACC-62, < 0.005 µM (active); in the experiment on SN12C it was < 0.005 µM (active); in the experiment with OVCAR-3 it was < 0.005 µM (active). In addition, the GI50 in the experiment on OVCAR-5 was < 0.005 µM (active); in the experiment with NCI/ADR-RES, 0.0617 µM (active); with U-251, < 0.005 µM (active); in the experiment with SF-268, < 0.005 µM (active); in the experiment with HOP-92 it was < 0.005 µM (active); in the experiment with IGROV-1, < 0.005 µM (active).
